Values of other authors in patent publication US20050215536A1, “Sequential SPRM/ progestin treatment” (priority 2004, published 2005).

Experiments:
progesterone receptor = biological target: T1, progesterone receptor (Oryctolagus cuniculus, UniProt P06186); settings: for agonist activity in the McPhail bioassay: rabbits; for McPhail score: rabbit model, scale of 0-4
T1 construct: SPRMs score lower than progesterone in the McPhail bioassay in rabbits; from tissue; host or cells: live rabbit
T1 sequence (P06186 1-930): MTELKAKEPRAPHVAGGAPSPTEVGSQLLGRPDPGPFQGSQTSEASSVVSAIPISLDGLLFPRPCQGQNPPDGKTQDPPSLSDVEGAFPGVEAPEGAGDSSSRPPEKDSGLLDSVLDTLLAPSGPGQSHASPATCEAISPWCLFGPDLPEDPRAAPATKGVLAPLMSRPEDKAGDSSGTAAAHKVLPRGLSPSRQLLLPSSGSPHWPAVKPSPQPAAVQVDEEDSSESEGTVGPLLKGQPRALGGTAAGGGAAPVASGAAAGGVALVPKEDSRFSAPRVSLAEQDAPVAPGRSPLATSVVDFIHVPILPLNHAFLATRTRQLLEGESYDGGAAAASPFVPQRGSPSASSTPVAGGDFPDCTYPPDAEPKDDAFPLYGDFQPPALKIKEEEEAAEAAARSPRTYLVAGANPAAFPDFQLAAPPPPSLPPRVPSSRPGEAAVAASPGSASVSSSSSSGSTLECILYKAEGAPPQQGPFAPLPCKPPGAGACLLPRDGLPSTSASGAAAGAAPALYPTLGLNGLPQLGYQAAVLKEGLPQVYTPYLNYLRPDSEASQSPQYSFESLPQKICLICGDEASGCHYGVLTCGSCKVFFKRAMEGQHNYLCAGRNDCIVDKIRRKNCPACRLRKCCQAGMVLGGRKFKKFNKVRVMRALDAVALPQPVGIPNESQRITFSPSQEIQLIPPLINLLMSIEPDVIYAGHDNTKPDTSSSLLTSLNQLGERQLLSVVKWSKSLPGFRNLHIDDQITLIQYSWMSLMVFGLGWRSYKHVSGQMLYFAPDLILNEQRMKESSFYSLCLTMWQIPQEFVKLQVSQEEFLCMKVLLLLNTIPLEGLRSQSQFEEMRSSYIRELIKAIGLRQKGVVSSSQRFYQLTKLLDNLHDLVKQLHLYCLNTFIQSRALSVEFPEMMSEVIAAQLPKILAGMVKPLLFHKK

[1] = premenopausal women

| SMILES | agonist activity in the McPhail bioassay (progesterone receptor) | McPhail score (progesterone receptor) | withdrawal bleeding (start of spontaneous menstrual cycle), time after stopping the SPRM treatment ([1]; all subjects, latest occurrence) | resumption of menstruation, time after cessation of treatment ([1]; majority of subjects) |
| --- | --- | --- | --- | --- |
| CN(C)c1ccc([C@H]2C[C@]3(C)[C@@H](CC[C@]3(O)CCCO)[C@@H]3CCC4=CC(=O)CCC4=C32)cc1 [onapristone] | do not show any agonist activity |  |  |  |
| CC(=O)[C@H]1CC[C@H]2[C@@H]3CCC4=CC(=O)CC[C@]4(C)[C@H]3CC[C@]12C [progesterone] |  | 4 |  |  |
| COC[C@]1(OC)CC[C@H]2[C@@H]3CCC4=CC(=O)CCC4=C3[C@@H](c3ccc(/C=N/O)cc3)C[C@@]21C [J867, 4-[17β-Methoxy-17α-(methoxymethyl)-3-oxoestra-4,9-dien-11β-yl]benzaldehyd-(1E)-oxim] |  |  | up to 90 days | ≤ 30 days |
| CC#C[C@]1(O)CC[C@H]2[C@@H]3CCC4=CC(=O)CCC4=C3[C@@H](c3ccc(N(C)C)cc3)C[C@@]21C [RU486, mifepristone] | do not show any agonist activity | less than 0.5 |  |  |
